From patent US12146004B2, “Polymyxin compounds and uses thereof” (priority 2014, dated 2024)
In brackets after ≈: the same amount, converted by molar mass. Bridge positions count the residues as written; N and C are the ends. Square brackets hold non-standard residues; d marks the D form. Peptide text beside a SMILES is read from it. * marks the point of attachment. ξ: configuration not given here. dBip = N[C@H](Cc1ccc(-c2ccccc2)cc1)C(=O)O; Octanoyl(6-Me) = CCC(C)CCCCC(=O)*; X3 = CCCCCCCCN1CCNC[C@H]1C(=O)*; dCha = N[C@H](CC1CCCCC1)C(=O)O; Thr(3ξ) = CC(O)[C@H](N)C(=O)O; X1 = CC(C)CN1CCNC[C@H]1C(=O)*; Dab = NCC[C@H](N)C(=O)O; Dap = NC[C@H](N)C(=O)O; X2 = CC(C)CC(CN)C(=O)*

Key:
Format in all cases: cell-based
[1] = test system: Acinetobacter baumannii
How it was run: (§1)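 In vitro susceptibility was determined across up to nine strains of each pathogen, some resistant. Potency is given as MIC, μg/mL.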

[2] = test system: Pseudomonas aeruginosa
How it was run: as §1

[3] = test system: Escherichia coli
How it was run: as §1

[4] = test system: Klebsiella pneumoniae
How it was run: as §1

[5] = test system: HK-2 cells
Text: Values are reported relative to Polymyxin B.

Row | MIC A. baumanii ATCC BAA-747 [1] [µg/mL] | MIC P. aeruginosa 068 [2] [µg/mL] | MIC P. aeruginosa 070 [2] [µg/mL] | MIC P. aeruginosa ATCC 27853 [2] [µg/mL] | MIC E. coli 058 [3] [µg/mL] | MIC E. coli 061 [3] [µg/mL] | MIC E. coli ATCC 25922 [3] [µg/mL] | MIC K. pneumoniae 063 [4] [µg/mL] | MIC K. pneumoniae 065 [4] [µg/mL] | MIC K. pneumoniae ATCC 4352 [4] [µg/mL] | HK-2 IC50 [5] [µg/mL] | MIC A. baumanii 053 [1] [µg/mL] | MIC A. baumanii 056 [1] [µg/mL] | MIC E. coli 059 [3] [µg/mL] | MIC E. coli 060 [3] [µg/mL] | MIC K. pneumoniae 064 [4] [µg/mL] | MIC K. pneumoniae 066 [4] [µg/mL] | MIC K. pneumoniae 067 [4] [µg/mL] | MIC K. pneumoniae 062 [4] [µg/mL] | Structure (SMILES) | also measured
1 | 0.5 (≈ 0.426 µM) | 1 (≈ 0.853 µM) | 1 (≈ 0.853 µM) | 1 (≈ 0.853 µM) | 1 (≈ 0.853 µM) | 0.5 (≈ 0.426 µM) | 0.5 (≈ 0.426 µM) | 2 (≈ 1.71 µM) | 1 (≈ 0.853 µM) | 0.25 (≈ 0.213 µM) | 20 | – | – | – | – | – | – | – | – | CC(C)Cc1ccc(C[C@H]2NC(=O)[C@H](CCN)NC(=O)[C@@H](NC(=O)[C@H](CN)NC(=O)[C@@H](NC(=O)C3CNCC(CC(C)C)C3)C(C)O)CCNC(=O)[C@H]([C@@H](C)O)NC(=O)[C@H](CCN)NC(=O)[C@H](CCN)NC(=O)[C@H](CC(C)C)NC2=O)cc1 (single isomer, unassigned; isomer 2) [Example 25, (Ttrans-5-(isobutyl-piperidine)-3-carbonyl L-Thr-L-Dap-polymyxin [D-(4-isobutyl Phe)]-6]heptapeptide isomer 2] | MIC A. baumanii NCTC 13424 [1]: 0.5 µg/mL (≈ 0.426 µM); MIC P. aeruginosa CCUG 59347 [2]: 2 µg/mL (≈ 1.71 µM)
2 | 0.25 (≈ 0.224 µM) | 32 (≈ 28.6 µM) | – | 0.5 (≈ 0.447 µM) | 8 (≈ 7.16 µM) | 32 (≈ 28.6 µM) | 0.25 (≈ 0.224 µM) | 128 (≈ 115 µM) | 16 (≈ 14.3 µM) | 0.125 (≈ 0.112 µM) | 316 | >256 | 256 (≈ 229 µM) | 16 (≈ 14.3 µM) | 8 (≈ 7.16 µM) | 32 (≈ 28.6 µM) | 32 (≈ 28.6 µM) | >256 | – | CC(C)C[C@@H]1NC(=O)[C@@H](Cc2ccccc2)NC(=O)[C@H](CCN)NC(=O)[C@@H](NC(=O)[C@H](CN)NC(=O)[C@@H](NC(=O)[C@@H]2CNCCN2CC(C)C)C(C)O)CCNC(=O)[C@H]([C@@H](C)O)NC(=O)[C@H](CCN)NC(=O)[C@H](CCN)NC1=O (stereo partly drawn) [Example C2, (S)-1-isobutyl piperazine-2-carbonyl-L-Thr-L-Dap-polymyxin B heptapeptide, reference compound] (X1-[Thr(3ξ)][Dap][Dab][Dab][dF]L[Dab][Dab]T; lactam 3-C) | –
3 | 1 (≈ 0.8 µM) | 2 (≈ 1.6 µM) | 2 (≈ 1.6 µM) | 1 (≈ 0.8 µM) | 1 (≈ 0.8 µM) | 2 (≈ 1.6 µM) | 1 (≈ 0.8 µM) | 4 (≈ 3.2 µM) | 1 (≈ 0.8 µM) | 1 (≈ 0.8 µM) | 4 | 4 (≈ 3.2 µM) | 2 (≈ 1.6 µM) | – | – | – | – | – | – | CCCCCCCCN1CCNC[C@H]1C(=O)N[C@H](C(=O)N[C@@H](CN)C(=O)N[C@H]1CCNC(=O)[C@H]([C@@H](C)O)NC(=O)[C@H](CCN)NC(=O)[C@H](CCN)NC(=O)[C@H](CC(C)C)NC(=O)[C@@H](Cc2ccc(-c3ccccc3)cc2)NC(=O)[C@H](CCN)NC1=O)C(C)O (stereo partly drawn) [Example 30, (S)-1-Octylpiperazine-2-carbonyl L-Thr-L-Dap-polymyxin [D-(4-phenyl Phe)]-6 heptapeptide.] (X3-[Thr(3ξ)][Dap][Dab][Dab][dBip]L[Dab][Dab]T; lactam 3-C) | MIC A. baumanii NCTC 13424 [1]: 2 µg/mL (≈ 1.6 µM); MIC P. aeruginosa CCUG 59347 [2]: 2 µg/mL (≈ 1.6 µM); MIC K. pneumoniae ATCC 13882 [4]: 1 µg/mL (≈ 0.8 µM)
4 | 1 (≈ 0.791 µM) | 2 (≈ 1.58 µM) | 2 (≈ 1.58 µM) | – | 1 (≈ 0.791 µM) | 2 (≈ 1.58 µM) | 1 (≈ 0.791 µM) | 4 (≈ 3.17 µM) | 1 (≈ 0.791 µM) | 1 (≈ 0.791 µM) | 3 | 8 (≈ 6.33 µM) | 4 (≈ 3.17 µM) | 0.5 (≈ 0.396 µM) | 1 (≈ 0.791 µM) | 2 (≈ 1.58 µM) | 0.5 (≈ 0.396 µM) | 4 (≈ 3.17 µM) | 4 (≈ 3.17 µM) | CCCCCCCCN1CCNC[C@H]1C(=O)N[C@H](C(=O)N[C@@H](CCN)C(=O)N[C@H]1CCNC(=O)[C@H]([C@@H](C)O)NC(=O)[C@H](CCN)NC(=O)[C@H](CCN)NC(=O)[C@H](CC(C)C)NC(=O)[C@@H](Cc2ccc(-c3ccccc3)cc2)NC(=O)[C@H](CCN)NC1=O)C(C)O (stereo partly shown) [Example 6] (X3-[Thr(3ξ)][Dab][Dab][Dab][dBip]L[Dab][Dab]T; lactam 3-C) | –
5 | 0.25 (≈ 0.217 µM) | 4 (≈ 3.47 µM) | 8 (≈ 6.94 µM) | 0.5 (≈ 0.434 µM) | 4 (≈ 3.47 µM) | 16 (≈ 13.9 µM) | 0.25 (≈ 0.217 µM) | 16 (≈ 13.9 µM) | 1 (≈ 0.868 µM) | 0.5 (≈ 0.434 µM) | 32 | 16 (≈ 13.9 µM) | 4 (≈ 3.47 µM) | 1 (≈ 0.868 µM) | 5 (≈ 4.34 µM) | 2 (≈ 1.74 µM) | 4 (≈ 3.47 µM) | 32 (≈ 27.8 µM) | 4 (≈ 3.47 µM) | CC(C)CC(CN)C(=O)N[C@H](C(=O)N[C@@H](CN)C(=O)N[C@H]1CCNC(=O)[C@H]([C@@H](C)O)NC(=O)[C@H](CCN)NC(=O)[C@H](CCN)NC(=O)[C@H](CC(C)C)NC(=O)[C@@H](Cc2ccc(-c3ccccc3)cc2)NC(=O)[C@H](CCN)NC1=O)C(C)O (single isomer, unassigned; isomer 2) [Example 16, 2-aminomethyl-4-methyl pentanoyl polymyxin L-Thr-L-Dap-polymyxin [D-(4-phenyl Phe)]-6]heptapeptide. Isomer 2] | –
6 | 0.125 (≈ 0.108 µM) | 8 (≈ 6.93 µM) | 16 (≈ 13.9 µM) | 0.5 (≈ 0.433 µM) | 4 (≈ 3.46 µM) | 16 (≈ 13.9 µM) | 0.25 (≈ 0.216 µM) | 64 (≈ 55.4 µM) | 8 (≈ 6.93 µM) | 0.25 (≈ 0.216 µM) | 76 | 32 (≈ 27.7 µM) | 16 (≈ 13.9 µM) | 8 (≈ 6.93 µM) | 8 (≈ 6.93 µM) | 8 (≈ 6.93 µM) | 8 (≈ 6.93 µM) | >64 | 8 (≈ 6.93 µM) | CC(C)CC(CN)C(=O)N[C@H](C(=O)N[C@@H](CN)C(=O)N[C@H]1CCNC(=O)[C@H]([C@@H](C)O)NC(=O)[C@H](CCN)NC(=O)[C@H](CCN)NC(=O)[C@H](CC(C)C)NC(=O)[C@@H](Cc2ccc(Br)cc2)NC(=O)[C@H](CCN)NC1=O)C(C)O (single isomer, unassigned; isomer 2) [Example 14, 2-aminomethyl-4-methyl pentanoyl polymyxin L-Thr-L-Dap-polymyxin [D-(4-bromo Phe)]-6]heptapeptide. Isomer 2] | –
7 | 0.5 (≈ 0.456 µM) | 32 (≈ 29.2 µM) | 32 (≈ 29.2 µM) | 0.5 (≈ 0.456 µM) | 8 (≈ 7.3 µM) | 32 (≈ 29.2 µM) | 0.25 (≈ 0.228 µM) | 64 (≈ 58.4 µM) | – | 0.25 (≈ 0.228 µM) | 83 | >64 | 64 (≈ 58.4 µM) | 16 (≈ 14.6 µM) | 8 (≈ 7.3 µM) | 8 (≈ 7.3 µM) | 16 (≈ 14.6 µM) | >64 | 16 (≈ 14.6 µM) | CC(C)CC(CN)C(=O)N[C@H](C(=O)N[C@@H](CCN)C(=O)N[C@H]1CCNC(=O)[C@H]([C@@H](C)O)NC(=O)[C@H](CCN)NC(=O)[C@H](CCN)NC(=O)[C@H](CC(C)C)NC(=O)[C@@H](CC2CCCCC2)NC(=O)[C@H](CCN)NC1=O)C(C)O (stereo partly shown) [Example 21] (X2-[Thr(3ξ)][Dab][Dab][Dab][dCha]L[Dab][Dab]T; lactam 3-C) | –
8 | 1 (≈ 0.781 µM) | 2 (≈ 1.56 µM) | 4 (≈ 3.13 µM) | 1 (≈ 0.781 µM) | 2 (≈ 1.56 µM) | 8 (≈ 6.25 µM) | 0.5 (≈ 0.391 µM) | 8 (≈ 6.25 µM) | 0.5 (≈ 0.391 µM) | 0.5 (≈ 0.391 µM) | 3 | 16 (≈ 12.5 µM) | 16 (≈ 12.5 µM) | 1 (≈ 0.781 µM) | 4 (≈ 3.13 µM) | 4 (≈ 3.13 µM) | 4 (≈ 3.13 µM) | 32 (≈ 25 µM) | 32 (≈ 25 µM) | CCC(C)CCCCC(=O)N[C@@H](CCN)C(=O)N[C@H](C(=O)N[C@@H](CCN)C(=O)N[C@H]1CCNC(=O)[C@H]([C@@H](C)O)NC(=O)[C@H](CCN)NC(=O)[C@H](CCN)NC(=O)[C@H](CC(C)C)NC(=O)[C@@H](Cc2ccc(-c3ccccc3)cc2)NC(=O)[C@H](CCN)NC1=O)C(C)O (stereo partly shown) [Example C3, reference compound] ({Octanoyl(6-Me)}-[Dab][Thr(3ξ)][Dab][Dab][Dab][dBip]L[Dab][Dab]T; lactam 4-C) | –
